Common to all, as to type: biochemical
The target of test [1] is Sorghum halepense EPSPS, native, SEQ ID NO:8 (Sorghum halepense, UniProt H6T5X2). Nature of the test: EPSPS substrate saturation kinetics, native sorghum. As for the experimental part: EPSPS activity was determined by quantifying the phosphate generated from the EPSPS reaction. Release of inorganic phosphate was coupled to reaction with 2-amino-6-mercapto-7-methylpurine ribonucleoside, catalyzed by purine-nucleoside phosphorylase (M R Webb, Proc. Natl. Acad. Sci. 89:4884-4887, 1992). The absorbance change that occurs was monitored at 360 nm, where the extinction is 11,200 M^−1 cm^−1, with a Spectramax plate reader (Molecular Devices). To determine kinetic parameters, the varied substrate was present at seven concentrations (the eighth being the blank, containing no substrate) ranging from 4 to 400 uM and the unvaried substrate present at saturation. […] Reactions were monitored with a Spectramax plate reader. […] KI was then calculated from the following form of the Michaelis-Menten equation for competitive inhibition: KI=KM[I]/(KM app−KM) KM approximates the dissociation constant of the enzyme-substrate complex while kcat is the rate of conversion of substrate to product when the substrate concentration is saturating. kcat/KM is a widely accepted parameter for catalytic efficiency when substrate concentration is low (˜KM). […] The parameter kcat/KM×KI is used to quantify both catalytic efficiency and insensitivity and thus the overall fitness of the enzyme. […]
Chain of Sorghum halepense EPSPS, native, SEQ ID NO:8 (H6T5X2 entry or part of it): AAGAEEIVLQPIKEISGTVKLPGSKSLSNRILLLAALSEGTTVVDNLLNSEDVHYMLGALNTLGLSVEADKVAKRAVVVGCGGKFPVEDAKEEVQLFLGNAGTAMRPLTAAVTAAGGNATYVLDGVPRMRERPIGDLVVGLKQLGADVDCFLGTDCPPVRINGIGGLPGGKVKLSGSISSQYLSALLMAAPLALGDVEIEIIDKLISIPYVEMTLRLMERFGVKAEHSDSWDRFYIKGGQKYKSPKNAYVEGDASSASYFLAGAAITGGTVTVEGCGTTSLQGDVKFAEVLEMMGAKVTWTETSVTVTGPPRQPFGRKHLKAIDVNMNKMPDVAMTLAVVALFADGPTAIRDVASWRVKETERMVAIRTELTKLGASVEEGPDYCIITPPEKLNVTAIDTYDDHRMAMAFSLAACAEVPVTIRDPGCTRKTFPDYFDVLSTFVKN

Test [2] has as its target EPSPS enzyme comprising 103I, 107S, and 445G (Zea mays, UniProt O24566, N444G/P106S/T102I). Nature of the test: kcat/KM*KI of EPSPS comprising 103I, 107S, 445G. Particulars: glyphosate as inhibitor. The source says:
The EPSPS polypeptides and active variants and fragments thereof disclosed herein may have improved catalytic capacity in the presence of glyphosate when compared to previously identified EPSPS polypeptides. The parameter that best indicates the fitness of this trait in vivo is kcat/KM*KI. The EPSPS polypeptides disclosed herein can have an increased kcat/KM*KI, when compared to previously known EPSPS enzymes. By “increase” is intended any statistically significant increase when compared to an appropriate control. In some embodiments, an appropriate control is a previously known EPSPS sequence, such as that set forth in SEQ ID NO:2 (maize), SEQ ID NO:7 (rice), SEQ ID NO:8 (sorghum), SEQ ID NO:9 (sunflower), SEQ ID NO:13 (soybean), SEQ ID NO:14 (wheat), SEQ ID NO:15 (Brassica rapa), SEQ ID NO:16 (tomato), or SEQ ID NO:17 (potato). In some embodiments, the increase in the kcat/KM*KI when compared to SEQ ID NO:2, 7, 8 9, 13, 14, 15, 16, or 17 can comprise about a 150, 200, 250, 300, 350, 400, 450, 500, 550, 600, 650, 700, 750, 800-fold or greater increase. In still further embodiments, kcat/KM*KI may include, for example, a kcat/KM*KI of more than about 2000, 2500, 3000, 3500, 4000, 4500, 5000, 5500, 6000, 6500, 7000, 7500, 8000, 8500, 9000, 9500, 10000, or more.

Test [3] deals with Zea mays EPSPS variant 278V (Zea mays, UniProt O24566, T277V). Kind of test: EPSPS reaction rate with or without 10 uM glyphosate, 278V. Note: 50 µM PEP and S3P. Particulars: pH 7; read-out: Reaction rate with 10 μM glyph, % no glyph.
Chain of Zea mays EPSPS variant 278V (O24566 entry or part of it T277V): as the sequence (H6T5X2 entry or part of it) above, with A1M, N61R, V72A, I161V, T278V, Q313E counted along it
The target of test [4] is T1, Zea mays EPSPS variant Zm-H6 (868-H6) with A36G (H6-A36G) (Zea mays, UniProt O24566, A1R/A35G/A3W/A415G/A71Q/D401G/E301S/E390G/G101A/I207L/K83R/L97C/T278A/T360S/T440Q/V437R).
T1 sequence (O24566 with tags, fused parts or gaps A1R/A3W/A35G/A71Q/K83R/L97C/G101A/I207L/T278A/E301S/T360S/E390G/D401G/A415G/V437R/T440Q): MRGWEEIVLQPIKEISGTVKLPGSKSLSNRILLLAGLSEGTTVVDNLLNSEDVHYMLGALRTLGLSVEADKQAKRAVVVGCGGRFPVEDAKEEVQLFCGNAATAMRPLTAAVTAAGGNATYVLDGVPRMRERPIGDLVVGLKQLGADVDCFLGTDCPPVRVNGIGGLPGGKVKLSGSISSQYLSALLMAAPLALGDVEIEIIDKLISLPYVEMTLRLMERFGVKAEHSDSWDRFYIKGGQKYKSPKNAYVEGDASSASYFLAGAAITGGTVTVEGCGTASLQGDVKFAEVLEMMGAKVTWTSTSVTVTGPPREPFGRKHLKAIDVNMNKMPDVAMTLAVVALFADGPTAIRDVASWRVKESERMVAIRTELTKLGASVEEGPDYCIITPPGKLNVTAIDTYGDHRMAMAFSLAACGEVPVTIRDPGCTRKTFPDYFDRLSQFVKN
Nature of the test: Substrate saturation kinetic analysis with glyphosate, H6-A36G.

Chain of EPSPS enzyme comprising 103I, 107S, and 445G (O24566 entry or part of it T102I/P106S/N444G): as the sequence (H6T5X2 entry or part of it) above, with A1M, N61R, V72A, T103I, P107S, I161V, Q313E, N445G counted along it

Broadly, the Ki is the equilibrium dissociation constant of an inhibitor or competing ligand from its target. On to `O=C(O)CNCP(=O)(O)O` [glyphosate, N-phosphonomethylglycine], for which the values for the Ki in test [1] and in test [4] were 0.2 µM and 454 µM, respectively. The “(kcat/KM)*KI” value in test [1] (PEP as substrate, glyphosate as inhibitor) came to 33; in test [2] it was 2254; in test [4] (substrate saturation, H6-A36G), 3630. Moreover, the activity at 10 µM in test [3] amounted to 3.25%.

The values above are taken from US11549123B2, “Plant EPSP synthases and methods of use” (PIONEER HI-BRED INTERNATIONAL, INC., priority 2015, dated 2023).
